The text below walks through data of publication PMC12264554, “Application of preclinical absorption, distribution, metabolism, elimination in vitro techniques for the characterization and compound library optimization of novel antibiotic gallium salophen” (Drug Metabolism and Disposition, 2025).

In one series the target is HasA (Pseudomonas aeruginosa, UniProt G3XD33). The experiment in a line: Kd determination by fluorescence quenching of apo-HasAp. Conditions: read-out: HasA Kd; apo-HasAp 1 μM, 20 mM sodium phosphate pH 7.4, 25 °C, one-site binding fit. As for the experimental part: Wild-type, full-length HasAp was prepared from freshly transformed Escherichia coli BL21(DE3) competent cells as previously described in 4 L of M9 media. Cell pellets were resuspended and lysed with an LM-20 microfluidizer at 18,000 psi. Lysate was clarified by centrifugation and applied to a Q-Sepharose column. HasAp was eluted over a gradient from 20 to 600 mM NaCl in 20 mM Tris-HCl (pH 7.5), and desired fractions determined by SDS-PAGE were pooled. Apo-HasAp was further purified on a Butyl Sepharose Fast Flow column equilibrated with 50 mM sodium phosphate buffer with 0.7 M ammonium sulfate (pH 7.0). Holo-HasAp and other proteins eluted within 2–3 bed volumes of 50 mM sodium phosphate containing 0.5 M ammonium sulfate. Apo-HasAp was then eluted with a linear gradient of sodium phosphate buffer (50–20 mM) containing ammonium sulfate (0.5–0 M). Fractions were analyzed again by SDS-PAGE, and the apo-HasAp was pooled, concentrated (Amicon stirred cell with Ultracel 10 kDa filter), and exchanged into 20 mM sodium phosphate buffer.
Binding affinities were determined using a BioTek Synergy H1 microplate reader in a black 96-well plate. Compounds were solvated in H2O in serial dilutions (100–0.39 μM). One micromolar solution of apo-HasAp 20 mM sodium phosphate buffer (pH 7.4, 25 °C) was titrated into the ligand of interest. Emission spectra were recorded (300–500 nm) after excitation at 280 nm. The decrease in maximum emission was plotted against the ligand concentration (accounting for dilution) and fit to one-site binding using GraphPad Prism v10.

Series [1] in a line: Caco-2 permeability screening. To be noted: for Papp: Caco-2, ranked by Papp against control drugs, read-out: Permeability ranking; for efflux ratio at 20 µM: human. Format: in vitro ADME. On the procedure:
Caco-2 cells were received from American Type Culture Collection and certified mycoplasma free. Cells were seeded on transwell plates (CoStar, growth area 0.33 cm^2/well, polycarbonate membrane, 0.33 μm pore size) between passage 20 and 27 and then analyzed between 21 and 25 days after wells were seeded to ensure enterocyte-like differentiation. Before assessing permeability, cells were washed once with Hank’s Balanced Salt Solution buffer, pH 7.4, and then incubated at 37 °C for 30 minutes. Transepithelial electrical resistance (TEER) was measured after equilibration before the experiment using an epithelial volt-ohmmeter (EVOM, World Precision Instruments), and cells were used if TEER > 250 Ω × cm^2. Cells were dosed to measure permeability from basolateral and apical sides at a concentration of 20 μM of test compound and 50 μM of Lucifer yellow. Lucifer yellow was used as a “zero permeability” marker to monitor the integrity of cell barrier. Samples were taken at 0 and 60 minutes from the donor side, and samples were taken at 30 and 60 minutes from the receiver side; media was replenished after the 30-minute sample was taken from both chambers. A calibration curve was prepared by serial dilution using the dosing solution in a 1:5 dilution. […] Samples were prepared for LC-MS/MS analysis by taking 100 μL of sample, adding 1 μM internal standard (GaSal-4 or GaSal-5), and crashing with 400 μL of methanol. Samples were centrifuged at 3000 rpm at 4 °C for 30 minutes, 200 μL of supernatant was transferred to a new plate, and 100 μL of water was added to each sample. Samples were vortexed and analyzed by LC-MS/MS as described earlier. […] To preliminarily evaluate organic cation transporter 1 (OCT1) or P-glycoprotein (P-gp)-dependent transport, transport studies were conducted with and without a 1 μM “inhibitor cocktail” alongside GaSal. […] The Papp for basolateral to apical, Papp apical to basolateral, and efflux ratio were reported for each compound. In order to calculate Papp, the concentration in the sampled time point was determined from the calibration curve and then converted to μg based on the volume of the chamber (0.2 mL for apical, 1.0 mL for basolateral). […] The calculation of Papp was determined using eq. […] Data are presented as the average ± SEM for each compound analyzed as n = 3 on 2 different days with 2 different cell line passages, for n = 6 total. GaSal is n = 3 on 3 different cell line passages since this was used as a test compound for the inhibition cocktail experiments.

Series [2] is described as follows: Experimental LogP by reverse-phase HPLC method. Format: physicochemical. To be noted: extrapolated log kw. The source says: LogP was experimentally determined using previously published reverse-phase high-performance liquid chromatography method, and this workflow was adapted using instrumentation described in the previous LC-MS/MS analysis section ([Coutinho et al, 2023]). Briefly, analogs were eluted using isocratic flow with an increasing percentage of organic solvent from 55% to 90% in increments of 5%. The change in the log of the retention factor, log k, was plotted against the fraction of organic solvent. This allowed for extrapolation to the y-intercept, which is when the fraction of organic in the system is zero, or log kw. The same workflow was applied to known compounds with a published logP value to establish a relationship between logP and log kw. This ratio was used to calculate the experimental logP from the log kw of the test compounds. The in silico prediction of logP values was obtained using an online calculator by Molinspiration Cheminformatics (molinspiration.com).

[3] abbreviates: Caco-2, 20 μM, 30 and 60 min, average ± SEM, read-out: Papp apical to basolateral.
[4] abbreviates: Caco-2, 20 μM, 30 and 60 min, average ± SEM, read-out: Papp basolateral to apical.
Setting [5] is: Caco-2, 20 μM, read-out: Efflux ratio B to A/A to B.

Like-named read-outs stand apart in the source and are kept apart here. Where only a bound is given, the exact number is not on record here.

HasA, sequence (G3XD33 entry or part of it): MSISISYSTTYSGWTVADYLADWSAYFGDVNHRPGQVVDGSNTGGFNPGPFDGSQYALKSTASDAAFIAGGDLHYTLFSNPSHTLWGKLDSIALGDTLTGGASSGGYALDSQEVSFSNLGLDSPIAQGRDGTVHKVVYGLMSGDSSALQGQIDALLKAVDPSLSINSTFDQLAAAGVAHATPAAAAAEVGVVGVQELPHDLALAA

In the case of `COCCOCCOc1ccc(C=Nc2ccccc2N=Cc2ccc(OCCOCCOC)cc2O)c(O)c1.[Ga+3]` [GaSal-5], the dissociation constant (Kd) at HasA was 2500 ± 1200 nM. In addition, the Papp A→B in series [1] (setting [3]) was 0.03 ± 0.01 ×10⁻⁶ cm/s. Besides, in series [1] (setting [4]), the Papp B→A turned out to be 3.2 ± 0.2 ×10⁻⁶ cm/s. Besides, in series [1], the Papp is under 1.12 ×10⁻⁶ cm/s. Moreover, the efflux ratio at 20 µM in series [1] (setting [5]) came to 107. Moreover, the log partition coefficient (logP) in series [2] was 3.95.

Consider `COCCOc1ccc(/C=N/c2ccccc2N=C(C)c2ccccc2O)c(O)c1.[Ga+3]` [GaSal-14], for which the equilibrium dissociation constant (Kd) on HasA turned out to be 2840 ± 120 nM. Further, in series [1] (setting [3]), the Papp A→B is under 0.01 ×10⁻⁶ cm/s. Further, in series [1] (setting [4]), the Papp B→A turned out to be 1.19 ± 0.4 ×10⁻⁶ cm/s. Also, in series [1], the Papp was under 1.12 ×10⁻⁶ cm/s. Moreover, the lipophilicity (logP) in series [2] is 3.31.

For the compound `O=C(O)CCOc1ccc(C=Nc2ccccc2N=Cc2ccc(OCCC(=O)O)cc2O)c(O)c1.[Ga+3]` [GaSal-4], the equilibrium dissociation constant (Kd) at HasA was determined as 1100 ± 100 nM. Moreover, the Papp A→B in series [1] (setting [3]) is under 0.01 ×10⁻⁶ cm/s. The Papp B→A in series [1] (setting [4]) came out at 1.44 ± 0.19 ×10⁻⁶ cm/s. Moreover, the Papp in series [1] was under 1.12 ×10⁻⁶ cm/s. Moreover, the logP in series [2] is 3.33.

On to `COCCOc1ccc(/C=N/c2ccccc2/N=C/c2ccc(OCCOC)cc2O)c(O)c1.[Ga+3]` [GaSal-13], for which the Kd on HasA was determined as 960 ± 140 nM. In addition, the Papp A→B in series [1] (setting [3]) came to 0.61 ± 0.01 ×10⁻⁶ cm/s. Further, the Papp B→A in series [1] (setting [4]) was determined as 0.91 ± 0.1 ×10⁻⁶ cm/s. In series [1], the Papp is under 1.12 ×10⁻⁶ cm/s. Further, in series [1] (setting [5]), the efflux ratio at 20 µM is 1.49. The logP in series [2] is 3.65.

On to `Oc1cc(OCCN2CCOCC2)ccc1C=Nc1ccccc1N=Cc1ccc(OCCN2CCOCC2)cc1O.[Ga+3]` [GaSal-3], for which the Kd at HasA is 1500 ± 300 nM. Besides, the Papp A→B in series [1] (setting [3]) came out at 0.04 ± 0.01 ×10⁻⁶ cm/s. Moreover, the Papp B→A in series [1] (setting [4]) is 1.16 ± 0.09 ×10⁻⁶ cm/s. Further, the Papp in series [1] was under 1.12 ×10⁻⁶ cm/s. Further, the efflux ratio at 20 µM in series [1] (setting [5]) stood at 29. In addition, the log partition coefficient (logP) in series [2] was 3.87.

`Oc1ccccc1/C=N/c1ccccc1/N=C/c1ccccc1O.[Ga+3]` [GaSal, gallium salophen]: the Kd on HasA turned out to be 800 ± 100 nM. For the same compound, the Papp A→B in series [1] (setting [3]) came out at 1.2 ± 0.01 ×10⁻⁶ cm/s; in series [1] (Caco-2, with OCT1 inhibitor cocktail (1 μM verapamil and cisplatin), read-out: Papp Apical to Basolateral), 1.81 ± 0.03 ×10⁻⁶ cm/s; in series [1] (Caco-2, with PGP inhibitor cocktail (1 μM cannabidiol and itraconazole), read-out: Papp Apical to Basolateral), 1.33 ± 0.03 ×10⁻⁶ cm/s. The Papp B→A in series [1] (setting [4]) came out at 13.6 ± 1.78 ×10⁻⁶ cm/s; in series [1] (Caco-2, with OCT1 inhibitor cocktail (1 μM verapamil and cisplatin), read-out: Papp Basolateral to Apical), 14.7 ± 3.26 ×10⁻⁶ cm/s; in series [1] (Caco-2, with PGP inhibitor cocktail (1 μM cannabidiol and itraconazole), read-out: Papp Basolateral to Apical) it was 16.8 ± 3.86 ×10⁻⁶ cm/s. In addition, the Papp in series [1] lay in the range of 1.12 to 3.51 ×10⁻⁶ cm/s. Also, the efflux ratio at 20 µM was 11.3 in series [1] (setting [5]); 8.1 in series [1] (Caco-2, with OCT1 inhibitor cocktail, read-out: Efflux Ratio B to A/ A to B); 12.6 in series [1] (Caco-2, with PGP inhibitor cocktail, read-out: Efflux Ratio B to A/ A to B). Moreover, the logP in series [2] is 2.58.
